The IC50 is the concentration that gives 50% inhibition.

Data on one molecule can be found in PMC12668308, “A Novel Antimalarial Agent that Inhibits Protein Synthesis in Plasmodium falciparum” (Angewandte Chemie (International Ed. in English), 2025).

The subject of one data set is Dd2b2^31-R1.2. The experiment in a line: [3H]-hypoxanthine incorporation assay. In kind it is cell-based, Plasmodium falciparum.
The test system of a further data set is Dd2b2^31-R1.1. Kind of data set: [3H]-hypoxanthine incorporation assay. The format is cell-based, Plasmodium falciparum.
The test system of another data set is Dd2b2^31-R3.2. Kind of data set: [3H]-hypoxanthine incorporation assay. The format is cell-based, Plasmodium falciparum.
The nature of data set [1]: Metabolic stability in liver S9 fractions. The format is in vitro ADME. The note with it: pooled mouse liver S9 fraction; 1 μM compound, 1 mg/mL pooled mouse liver S9, 37 °C; read-out: t1/2 Mouse Liver S9. How it is done:
To evaluate phase I and phase II metabolic stability, the compound (1 μM) was incubated at 37 °C for 240 min with 1 mg/mL pooled mouse liver S9 fraction (Xenotech, Kansas City, USA), 2 mM NADPH, 1 mM UDPGA, 10 mM MgCl2, 5 mM GSH and 0.1 mM PAPS. Metabolic stability of reference compounds: testosterone, verapamil and ketoconazole was determined in parallel to confirm the enzymatic activity of mouse S9 fractions. At defined time points, the incubation was stopped by precipitation of aliquots of S9 enzymes with 2 volumes of cold acetonitrile containing internal standard (150 nM diphenhydramine or 15 nM for Altis Plus measurements). Samples were kept on ice until the end of the incubation, after which precipitated protein was removed by centrifugation (15 min, 4 °C, 4,000 g).

The mark [2] stands for this setting: Plasmodium falciparum, read-out: mean IC50 value ± s.d.

Molecules are shown by their SMILES.

With `CN1CCN(Cc2ccc(O)c(NC(=O)c3cccc(Oc4cc(C(F)(F)F)ccn4)c3)c2)CC1` [Compound 31, N-(2-hydroxy-5-((4-methylpiperazin-1-yl)methyl)phenyl)-3-((4-(trifluoromethyl)pyridin-2-yl)oxy)benzamide], the figures for the “IC50 fold change relative to Dd2b2^WT” value with Dd2b2^31-R1.2 (Dd2b2^31-R1.2), in the data set with Dd2b2^31-R1.1 (Dd2b2^31-R1.1) and in the data set on Dd2b2^31-R3.2 (Dd2b2^31-R3.2) were 11.9, 2.7 and 19.8, respectively. In addition, the IC50 in the data set with Dd2b2^31-R1.2 (setting [2]) amounted to 159 ± 32.9 nM; in the data set on Dd2b2^31-R1.1 (setting [2]) it was 35.8 ± 11.2 nM; with Dd2b2^31-R3.2 (setting [2]), 264 ± 40.5 nM. Besides, the half-life at 1 µM in data set [1] turned out to be 42.7 ± 3.7 min.
